Measured values reported in article PMC7259601 (PLoS ONE, 2020).
Values joined by “and” are separate entries in the source; they are usually repeats but may differ in a detail not shown here. Identical values can stand only once. Like-named read-outs stand apart in the source and are kept apart here.

Key:
KDM1A [1] = biological target: T1, KDM1A (Homo sapiens, UniProt O60341); assay: Chemoprobe based KDM1A target engagement in THP-1 cells; format: cell-based; set-up: Native protein extracts of cells or tissues were obtained in presence of 25 nM OG-881 chemoprobe; endogenous in cells; host or cells: THP-1; conditions: THP-1 cells treated 24 hr
Description: Native protein extracts of cells or tissues were obtained in presence of 25 nM OG-881 chemoprobe according the protocol described in Mascaró et al..
Luminescent ELISA: for quantification of total amount of KDM1A protein (TOTAL KDM1A), Luminunc Plates Maxisorp (NUNC; #436110) were coated with a monoclonal anti-KDM1A antibody (Abcam; #ab53269) at 2 µg/mL in PBS. For quantification of the fraction not bound to inhibitor (FREE KDM1A), plates were coated with streptavidin (Promega Biotech Ibérica; #Z7041) at 10 µg/mL in PBS. Coating was performed at 4°C O/N. Wells were washed 3 times in PBS, 0.1% Tween-20 and blocked with PBS-BSA 1% (Sigma; #A3059) for 2 hr. A KDM1A calibration curve of full length rKDM1A (Active Motif; #31334) diluted in PBS was included in each plate. Plates were then incubated 1 hr at RT and washed 5 times. […] Plates were centrifuged during 30 sec to 1,500 x g, shaken for 1 min at 100rpm and incubated inside the micropate reader (Infinite 200, Tecan) for 3 min at 25 °C. The relative luminescence units (RLU) readouts were acquired using a 1000 msec integration time and 150 msec settle time.
All assays were run as triplicate technical replicates (n = 3). After raw data processing (robust elimination of outliers according to Grubbs criteria and subtraction of blank signal on technical replicates), the target engagement was calculated as […]

MAO-A = biological target: T2, MAO-A (Mus musculus, UniProt Q64133); assay: L-5-HTP-induced symptoms test; format: in vivo, CD1 mice; conditions: mouse; p.o. gavage, followed by 100 mg/kg L-5-HTP i.p.; read-out: ED50 potentiation of L-5-HTP-induced symptoms
T2 construct: from tissue; host or cells: mouse brain (homogenate ex vivo; living animal in the L-5-HTP test)
T2 sequence (Q64133 1-526): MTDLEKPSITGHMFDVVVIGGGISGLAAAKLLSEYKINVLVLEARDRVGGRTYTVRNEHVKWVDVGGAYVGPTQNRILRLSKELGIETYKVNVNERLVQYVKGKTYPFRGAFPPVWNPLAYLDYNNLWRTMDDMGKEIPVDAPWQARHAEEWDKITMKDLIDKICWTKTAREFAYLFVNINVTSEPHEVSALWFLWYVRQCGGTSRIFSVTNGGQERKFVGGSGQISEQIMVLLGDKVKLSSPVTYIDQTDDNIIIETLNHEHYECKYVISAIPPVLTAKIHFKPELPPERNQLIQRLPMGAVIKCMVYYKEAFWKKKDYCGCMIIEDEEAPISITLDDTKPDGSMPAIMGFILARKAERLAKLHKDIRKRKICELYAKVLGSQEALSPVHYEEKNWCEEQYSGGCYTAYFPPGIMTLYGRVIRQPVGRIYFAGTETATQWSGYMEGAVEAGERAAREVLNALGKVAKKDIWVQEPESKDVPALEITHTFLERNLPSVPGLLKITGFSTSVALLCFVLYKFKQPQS
Description: Male C57BL/6 mice (8 weeks of age, 25-30 g) procured from Harlan Interfauna Iberica were housed in the same condition that in MAO-B PEA section. This test was performed essentially as previously described. Test compound was administered p.o. at several dose levels to groups of mice (N = 10/dose) 60 min before an i.p. injection of L-5-HTP (100 mg/kg). This dose of 5-L-HTP produced no effects in control animals. […] Studies were performed in accordance with the institutional guidelines for the care and use of laboratory animals (European Communities Council Directive 86/609/EEC) established by the Ethical Committee for Animal Experimentation at the PRAAL-PCB.
This test was performed essentially as previously described [90](Koe et al., 1983). Test compound was administered p.o. at several dose levels 60 min before an i.p. injection of L-5-HTP. […] One score assigned to each symptom observed per animal, giving a maximal obtainable score of 30 per group of 10 mice.
Behavior was rated as outline above.

SAMP8 mice = assay: Three Chamber Test (TCT); format: in vivo, mouse; conditions: 0.96 mg/kg/day
Description: Both male and female mice from the senescence accelerated strain SAMP8 and its control SAMR1 of different ages (see Table S3 for details) were used in these studies. Mice were breed in the animal facilities of the Pharmacy Faculty (University of Barcelona), maintained in a at 22 ± 2 °C controlled temperature in a 12 hr light / dark cycle (lights on at 8:00 am; 300 lux/0 lux) with ad libitum access to food (2018 TEKLAD, Harlan) and water. Male mice were housed individually (males) or in groups of 4-5 animals (females) in plastic colony boxes with a sawdust bedding material. […] SAMR1 mice treated with vehicle were included as a control. All drugs were administered via drinking water and diluted in vehicle. Drug concentration was calculated weekly in function of body weight and corrected in function of drinking water consumption. Cognitive function was evaluated by NORT, social behavior was evaluated by RI and anxiety and motor function were evaluated by EPM and OF. […]
The test was performed in a Plexiglas transparent box with three identical consecutive chambers (15 x 15 x 20 cm). […] This habituation time was monitored to avoid animals showing preference for one of the chambers. […] The time spent in each chamber and the time of direct exploration of the novel mice was measured.
Three Chamber Test (TCT): Mice were recorded for 5 min during habituation and an additional X min to run the test. […]

KDM1A [2] = biological target: T1, KDM1A; assay: KDM1A inhibition assay (Amplex Red, dimethylH3K4 peptide); format: biochemical; set-up: purchased BPS Bioscience 50100

With `Nc1nnc(CN[C@@H]2C[C@H]2c2ccc(OCc3ccccc3)cc2)o1` [ORY-2001, vafidemstat] the EC50 (KDM1A [1]) was ~1 nM and 1 nM, the ED50 (MAO-A) was 20.5 mg/kg and the “time exploring mice introduced in the cage” value (SAMP8 mice; 12 month old female) was “restored the time SAMP8 spent exploring mice”. For the same molecule, the “preference for the chamber with the novel mice” value (SAMP8 mice; female) was “restored the normal preference”, the IC50 (KDM1A [2]; mean IC50 KDM1A, mean ± SD, minimum 2 independent experiments) was 101 ± 40 nM and the IC50 (KDM1A [2]; rKDM1A, N = 1, n = 2, read-out: IC50 KDM1A, representative dose-response curve) was 105 nM.
